The record followed here is patent US5716929A (Vertex Pharmaceuticals, Inc., priority 1995, dated 1998).

Square brackets hold non-standard residues; d marks the D form. Peptide text beside a SMILES is read from it. * marks the point of attachment. ξ: configuration not given here. Hyp = O=C(O)[C@@H]1C[C@@H](O)CN1; Tic = O=C(O)[C@@H]1Cc2ccccc2CN1; ξD = NC(CC(=O)O)C(=O)O; Allyl = C=CC*

The assay concerns the target T1, interleukin-1β converting enzyme (ICE) (Homo sapiens, UniProt P29466).
T1 sequence (P29466 120-297 limits assumed): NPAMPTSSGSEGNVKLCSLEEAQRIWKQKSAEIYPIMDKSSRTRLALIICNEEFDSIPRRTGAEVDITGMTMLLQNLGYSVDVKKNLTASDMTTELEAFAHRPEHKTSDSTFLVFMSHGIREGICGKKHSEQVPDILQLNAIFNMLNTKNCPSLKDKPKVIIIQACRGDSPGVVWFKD
T1 sequence (P29466 317-404 limits assumed): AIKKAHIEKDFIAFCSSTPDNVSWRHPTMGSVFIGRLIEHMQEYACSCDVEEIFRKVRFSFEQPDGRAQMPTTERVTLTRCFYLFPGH
Put plainly: Enzyme assay with UV-visible substrate (Succinyl-Tyr-Val-Ala-Asp-pNitroanilide). In kind it is biochemical. The procedure: 1. Enzyme assay with UV-visible substrate
This assay is run using an Succinyl-Tyr-Val-Ala-Asp-pNitroanilide substrate (SEQ ID NO: 1). Synthesis of analogous substrates is described by L. A. Reiter (Int. J. Peptide Protein Res. 43, 87-96 (1994)). The assay mixture contains: […]
The visible ICE assay is run in a 96-well microtiter plate. Buffer, ICE and DMSO (if inhibitor is present) are added to the wells in the order listed. The components are left to incubate at room temperature for 15 minutes starting at the time that all components are present in all wells. The microtiter plate reader is set to incubate at 37° C. After the 15 minute incubation, substrate is added directly to the wells and the reaction is monitored by following the release of the chromophore (pNA) at 405-603 nm at 37° C. for 20 minutes. A linear fit of the data is performed and the rate is calculated in mOD/min. DMSO is only present during experiments involving inhibitors, buffer is used to make up the volume to 100 μl in the other experiments.
For determination of enzyme inhibition constants (Ki) or the mode of inhibition (competitive, uncompetitive or noncompetitive), the rate data determined in the enzyme assays at varying inhibitor concentrations are computer-fit to standard enzyme kinetic equations (see I. H. Segel, Enzyme Kinetics, Wiley-Interscience, 1975).

Consider `O=C[C@H](CC(=O)O)NC(=O)[C@@H]1CCCN1C(=O)c1cc2ccccc2[nH]1` [Compound 39, (3S) 3-[1-(Indole-2-carbonyl)-L-prolinyl]amino-4-oxobutanoic acid], for which, where the note is “Example 4 table”, the inhibition constant (Ki) (in general, the equilibrium dissociation constant of an inhibitor or competing ligand from its target) is 2500 nM.

For the molecule `C=CCO[C@@H]1C[C@@H](C(=O)N[C@H](C=O)CC(=O)O)N(C(=O)[C@@H](NC(=O)[C@H](Cc2ccc(O)cc2)NC(C)=O)C(C)C)C1` [Compound 85, N-(N-Acetyl-tyrosinyl-valinyl-(4 (R)-allyloxyprolinyl))-3(S)-amino-4-oxobutanoic acid] (Ac-YV[Hyp](Allyl)D-aldehyde), the Ki (Example 6 table) was determined as 3.5 nM.

Take `CC(=O)N[C@@H](Cc1ccc(O)cc1)C(=O)N[C@H](C(=O)N[C@@H](C)C(=O)N[C@@H](CC(=O)O)C(=O)COCc1ccccc1Cl)C(C)C` [Compound 89, N-Acetyl-(S)-tyrosinyl-(S)-valinyl-(S)-alaninyl-3(S)-amino-5-(2-chlorobenzyloxy)-4-oxo-pentanoic acid]: for the setting “Example 6 table”, the affinity, expressed as Ki, was 18 nM.

Regarding `O=C[C@H](CC(=O)O)NC(=O)C1CCc2ncc(NC(=O)c3ccccc3)c(=O)n21` (single isomer, unassigned) [Compound 7b], the affinity (Example 4 table), expressed as Ki, was 1200 nM. This counts as single-digit micromolar.

Under “Example 4 table”, `O=C[C@H](CC(=O)O)NC(=O)[C@@H]1CCCN1C(=O)c1nc(CCc2ccccc2)c[nH]1` [Compound 21c, (3S)3{N-[4-(2-Phenylethyl)imidazole-2-carbonyl]-L-prolinyl}amino-4-oxobutanoic acid] gave a Ki of 640 nM.

Where the note is “Example 4 table”, `CC(=O)N[C@@H](Cc1ccc(O)cc1)C(=O)N[C@H](C(=O)N[C@@H](C)C(=O)N[C@H](CC(=O)O)C(=O)COCc1c(Cl)cccc1Cl)C(C)C` (mixture of isomers) [Compound 84b, (R,S)N-[N-(Acetyl)tyrosinyl-valinyl-alaninyl]-3-amino-5-(2,6-dichlorophenylmethyloxy)-4-oxo-pentanoic acid] gave an inhibition constant Ki of 19 nM.

For the molecule `O=C(O)C[C@H](NC(=O)CN1C(=O)[C@@H](NC(=O)CCc2ccccc2)CN(C(=O)CCc2ccccc2)c2ccccc21)C(=O)c1ncc(-c2c(Cl)cccc2Cl)o1` [Compound 108c, 4-[5-(2,6-Dichlorophenyl)oxazol-2-yl]-4-oxo-3(S)-{2-[2-oxo-5-(3-phenylpropionyl)-3(S)-(3-phenylpropionylamino)-2,3,4,5-tetrahydrobenzo[b][1,4]diazepin-1-yl]-acetylamino}butyric acid], under “Example 6 table”, the affinity, expressed as Ki, was 430 nM.

`C[C@H](NC(=O)c1cnc(CCc2ccccc2)[nH]1)C(=O)N[C@H](C=O)CC(=O)O` [Compound 33a, (3S)3-{N-[2-(2-Phenylethyl)imidazole-4-carbonyl]-L-alaninyl}amino-4-oxobutanoic acid] gave a Ki (Example 2 table) of 5500 nM. In other words, the single-digit micromolar range.

`CC(C(=O)N[C@H](C=O)CC(=O)O)n1c(Cc2ccccc2)ccc(NC(=O)CCc2ccccc2)c1=O` (stereo partly drawn) [Compound 54h, 3(S), N(2(R,S))3-(2-(6-Benzyl-1,2-dihydro-2-oxo-3-(3-phenylpropionyl)amino-1-pyridyl)propionylamino)-4-oxobutanoic acid] registered an inhibitory constant (Ki) (Example 4 table) of 970 nM.

As to `C[C@H](NC(=O)c1ncc(CCc2ccccc2)[nH]1)C(=O)N[C@H](C=O)CC(=O)O` [Compound 20c, (3S)3-{N-[4-(2-Phenylethyl)imidazole-2-carbonyl]-L-alaninyl}amino-4-oxobutanoic acid], the affinity (Example 2 table), expressed as Ki, was 950 nM.

Under “Example 2 table”, `C[C@H](NC(=O)c1cnc(Cc2ccccc2)[nH]1)C(=O)N[C@H](C=O)CC(=O)O` [Compound 33c, (3S)3-[N-(2-Benzylimidazole-4-carbonyl)-L-alaninyl]amino-4-oxobutanoic acid] displayed an inhibition constant (Ki) of 8600 nM.

Under “Example 4 table”, `C[C@H](NC(=O)c1nc(CCCc2ccccc2)c[nH]1)C(=O)N[C@H](C=O)CC(=O)O` [Compound 20d, (3S)3-{N-[4-(3-Phenylpropyl)imidazole-2-carbonyl]-L-alaninyl}amino-4-oxo-butanoic acid] returned a Ki of 100 nM.

On to `C[C@H](NC(=O)c1ccc[nH]1)C(=O)N[C@H](C=O)CC(=O)O` [Compound 36a, (3S)3-[N-(Pyrrole-2-carbonyl)-L-alaninyl]amino-4-oxobutanoic acid], for which the Ki (Example 2 table) is 4700 nM.

Molecule `O=C(O)C[C@H](NC(=O)Cn1c(Cc2ccccc2)ccc(NC(=O)CCc2ccccc2)c1=O)C(=O)CO` [Compound 88, N-2-(6-Benzyl-1,2-dihydro-2-oxo-3-(3-phenylpropionyl)amino-1-pyridyl)acetyl-3(S)-amino-5-hydroxy-4-oxo-pentanoic acid] yielded a Ki (Example 6 table) of 900 nM.

As for `CC(C(=O)N[C@H](C=O)CC(=O)O)N1CCN(C(=O)CCc2ccccc2)C[C@H](NC(=O)CCc2ccccc2)C1=O` (mixture of isomers) [Compound 115, 4-Oxo-3(S)-{2(R,S)-[7-oxo-4-(3-phenyl-propionyl)-6(S)-(3-phenyl-propionylamino)-[1,4]diazepan-1-yl]propionylamino}-butyric acid], the Ki (Example 6 table) was found to be 345 nM.

In the case of `CC(C)[C@H](NC(=O)OCc1ccccc1)C(=O)N[C@@H](C)C(=O)N[C@H](CC(=O)O)C(=O)COCc1c(Cl)cccc1Cl` (mixture of isomers) [Compound 84a, (R,S) N-[N-(Phenylmethyloxy)carbonyl-valinyl-alaninyl]-3-amino-5-(2,6-dichlorophenylmethyloxy)-4-oxo-pentanoic acid], where the note is “Example 4 table”, affinity was put at a Ki of 100 nM.

`COc1ccc(CCCc2cnc(C(=O)N3C[C@H](Oc4ccccc4)C[C@H]3C(=O)N[C@H](C=O)CC(=O)O)[nH]2)cc1` [Compound 22e, 3(S)-[(1-{5-[3-(4-Methoxyphenyl)propyl]-1H-imidazole-2-carbonyl}-4(R)-phenoxypyrrolidine-2(S)-carbonyl)amino]-4-oxobutanoic acid] yielded an inhibitory constant (Ki) (Example 6 table) of 190 nM. This lies in the sub-micromolar range.

`O=C[C@H](CC(=O)O)NC(=O)[C@@H]1CCCN1C(=O)c1nc(CCCc2ccccc2)c[nH]1` [Compound 21d, (3S) 3-{N-[4-(3-Phenylpropyl)imidazole-2-carbonyl]-L-prolinyl}amino-4-oxo-butanoic acid] registered a Ki (Example 4 table) of 240 nM.

Turning to `O=C[C@H](CC(=O)O)NC(=O)[C@@H]1CCCN1C(=O)c1nc(CCCc2ccc(O)cc2)c[nH]1` [Compound 21f, (3S)3-{N-[4-[3-(4-Hydroxyphenyl)propyl]imidazole-2-carbonyl]-L-prolinyl}amino-4-oxobutanoic acid], where the note is “Example 4 table”, the Ki worked out at 170 nM.

Molecule `C[C@H](NC(=O)c1nc(Cc2ccccc2)c[nH]1)C(=O)N[C@H](C=O)CC(=O)O` [Compound 20b, (3S)3-[N-(4-Benzylimidazole-2-carbonyl)-L-alaninyl]amino-4-oxobutanoic acid] registered an inhibition constant Ki (Example 4 table) of 850 nM.

For the setting “Example 4 table”, `COc1ccc(CCCc2c[nH]c(C(=O)N3CCC[C@H]3C(=O)N[C@H](C=O)CC(=O)O)n2)cc1` [Compound 21e, (3S)3-{N-[4-[3-(4-Methoxyphenyl)propyl]imidazole-2-carbonyl]-L-prolinyl}amino-4-oxobutanoic acid] came in with a Ki of 220 nM.

Take `CC(=O)N[C@@H](Cc1ccc(O)cc1)C(=O)N[C@H](C(=O)N1Cc2ccccc2C[C@H]1C(=O)NC(C=O)CC(=O)O)C(C)C` (stereo partly drawn) [L, N-[2-(N-Acetyl-tyrosinyl-valinyl)-(S)-1,2,3,4-tetrahydroisoquinoline-3-carbonyl]-3-amino-oxobutanoic acid] (Ac-YV[Tic][ξD]-aldehyde): where the note is “Example 2 table”, the affinity, expressed as Ki, was 14 nM.

Where the note is “Example 4 table”, `O=C[C@H](CC(=O)O)NC(=O)C1CCc2ncc(NC(=O)c3ccccc3)c(=O)n21` (single isomer, unassigned) [Compound 7a] came in with a Ki of 35000 nM.
